Reference: US8927227B2, “Method of measuring effects of components on cell reactive oxygen species production” (Colgate-Palmolive Company, priority 2008, dated 2015)

System: Human histocytic lymphoma U937 cells
Experiment: Intracellular ROS fluorescence assay (DCF-DA / DHR123) in U937 cells exposed to H2O2 and LPS
Type: cell-based
Description: Human histocytic lymphoma U937 cells (ATCC, Manassas, Va.) were initially cultured in RPMI-1640 media (ATCC, Manassas, Va.) containing 10% serum and 1% penicillin, and then transferred at a concentration of 2×10^5 cells/ml into media containing 1 ng/ml PMA for 48 hours at 37° C. The cells were starved overnight in serum-free culture media before exposure to dye.
Cells were washed with PBS buffer twice, and divided into two sets to be incubated with DCF-DA or DHR123 (Calibochem, La Jolla, Calif.) for 30 minutes at 30° C. Cells are washed with PBS twice to remove residual dye. Appropriate experimental controls are also maintained.
Cells are then divided into several groups, and various amounts of a 1% solution of α-tocopherol (Vitamin E), substance 1, or substance 2 is added to each of the groups, and incubated at 37° C. for 15 minutes. Cells then were washed twice with PBS to remove residual amounts of test compounds. ROS agents H2O2 and LPS then were added and incubated for different periods of time. Fluorescence of the cells then were read at excitation 485 nm and emission 530 nm for up to 5 hours.

SMILES: Cc1c(C)c2c(c(C)c1O)CC[C@@](C)(CCC[C@H](C)CCC[C@H](C)CCCC(C)C)O2 [α-tocopherol]
- reduction of oxidative level (2 ppm active, 2.5 mM hydrogen peroxide, FIG. 2): approximately 30%
- capability in scavenging ROS or free radicals (10 ppm and 100 ppm active compared with 2 ppm, 2.5 mM hydrogen peroxide, FIG. 2): did not show enhanced capability in scavenging ROS or free radicals
- cell fluorescence versus cells incubated without test compound (two hours of incubation, ROS at 2.5 mM and ROS stimulant, FIG. 1): cells incubated in the absence of a test compound but in the presence of the ROS at 2.5 mM and ROS stimulant fluoresce greater
